According to patent publication US11225505B2, “Antimicrobial polymyxin derivative compounds” (MONASH UNIVERSITY, priority 2015, dated 2022):
In brackets after ≈: the same amount, converted by molar mass. Where two headings read alike, the source gives them in different places. Where a SMILES comes first, the peptide text is derived from it. Bridges are numbered along the chain shown (N, C = ends). [ ]: non-standard residue; d: D form. The star is where a group is joined. X19 = O=C(c1ncc(C(F)(F)F)cc1Cl)*; X14 = O=C(c1ccc(C(F)(F)F)cn1)*; X42 = O=C(c1nc2ccccc2[nH]1)*; Dab = NCC[C@H](N)C(=O)O; Abu = CC[C@H](N)C(=O)O; Dap = NC[C@H](N)C(=O)O

Columns and labels:
[1] = system: Acinetobacter baumannii ATCC 17978; format: cell-based
Procedure, shortened: (§1)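 The read-out is the MIC, obtained by CLSI broth microdilution (M100-S24) in cation-adjusted Mueller-Hinton broth. The compounds were lipopeptide TFA salts, and polymyxin B sulphate served as control.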

[2] = system: Acinetobacter baumannii FADDI-AB034; format: cell-based
Procedure, shortened: as §1

[3] = system: Enterobacter cloacae FADDI-EC001; format: cell-based
Procedure, shortened: (§2)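 MIC; CLSI broth microdilution; cation-adjusted MH broth; test articles as TFA salts; polymyxin B control; polymyxin-susceptible isolates.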

[4] = system: Enterobacter cloacae FADDI-EC003; format: cell-based
Procedure, shortened: as §1

[5] = system: Enterobacter cloacae FADDI-EC006; format: cell-based
Procedure, shortened: as §1

[6] = system: Klebsiella pneumoniae FADDI-KP022; format: cell-based
Procedure, shortened: as §1

[7] = system: Klebsiella pneumoniae FADDI-KP032; format: cell-based
Procedure, shortened: as §1

[8] = system: Klebsiella pneumoniae Kp BM1; format: cell-based
Procedure, shortened: as §2

[9] = system: Pseudomonas aeruginosa ATCC 27853; format: cell-based
Procedure, shortened: as §1

[10] = system: Pseudomonas aeruginosa FADDI-PA01; format: cell-based
Procedure, shortened: as §1

[11] = system: Pseudomonas aeruginosa FADDI-PA022; format: cell-based
Procedure, shortened: as §1

[12] = system: Pseudomonas aeruginosa FADDI-PA038; format: cell-based
Procedure, shortened: as §1

[13] = system: Acinetobacter baumannii FADDI-AB030; experiment: microbe, parasite or virus in culture; format: cell-based
Procedure, shortened: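 Broth microdilution MIC in cation-adjusted Mueller-Hinton broth per CLSI M100-S24; lipopeptides tested as TFA salts. FADDI-AB030 is a multidrug-resistant clinical isolate. Polymyxin B sulphate served as control.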

mouse kidney = experiment: Nephrotoxicity in a mouse model (kidney histology); format: in vivo; conditions: for Max Overall Kidney Histological Score / Max Kidney Histological Score: mice (n=3), subcutaneous 12 mg/kg free base every 2 h, 6 doses in one day; for Max Overall Kidney Histological Score: kidney ~20 h after last dose; for Max Kidney Histological Score: semiquantitative score 0 to +5
Experimental: Polymyxin B sulphate and colistin sulphate were supplied by Betapharma (Shanghai Co., Ltd, China). Stock solutions of compounds in saline (5 mg base/mL) were stored at 4° C. before use. Mice (n=3) were subcutaneously administered with the compound at 12 mg/kg of the free base form every 2 h, 6 doses in one day. At approximately 20 h after the last dose, mice were euthanised by inhalation of an overdose of isoflurane. Immediately after blood sampling, the right kidney from each mouse was collected immediately and placed in 10% formalin in 5 mL plastic tubes and the left kidney placed in a pre-weighed 14 mL plastic tubes, weighed again and stored at −20° C. pending homogenization and analysis of polymyxin B and colistin. The frozen kidney samples were thawed, homogenized in 2 mL of Milli-Q water and stored in a −20° C. freezer. The formalin-fixed kidneys were then sent to the Australian Phenomics Network-Histopathology and Organ Pathology (The University of Melbourne, Parkville, Australia) for histological examination. Samples were examined by a pathologist who was blind to the treatment groups.
Lesions were rated as follows: mild acute tubular damage with tubular dilation, prominent nuclei and a few pale tubular casts (Grade 1); severe acute tubular damage with necrosis of tubular epithelial cells and numerous tubular casts (Grade 2); acute cortical necrosis/infarction of tubules and glomeruli with or without papillary necrosis (Grade 3). The grades were given the following scores: grade 1=1, grade 2=4, and grade 3=10. The percentage of area of the kidney slice showing histological damage was scored as follows: <1%=0, 1 to <5%=1, 5 to <10%=2, 10 to <20%=3, 20 to <30%=4, 30 to <40%=5, and >40%=6. The overall kidney histological score was calculated as the product of the percentage score and grade score. These scores were then expressed as a semiquantitative score (Kidney Histological Score) on a scale of 0 to +5 for renal histological changes. These scores were assigned as follows: SQS 0=no significant change (overall score, <1); SQS +1=mild damage (overall score, 1 to <15); SQS +2=mild to moderate damage (overall score, 15 to <30); SQS +3=moderate damage (overall score, 30 to <45); SQS +4=moderate to severe damage (overall score, 45 to <60); and SQS +5=severe damage (overall score, ≥60) (Yousef, J., et al., (2011) Antimicrob. Agents and Chemother. 55 (9), 4044-4049).
Any compound with a kidney histological score of ≤+1.0 is considered to have a low nephrotoxicity in this model.

[14] = A. baumannii ATCC 17978, CAMHB broth microdilution
[15] = A. baumannii FADDI-AB034, CAMHB broth microdilution
[16] = E. cloacae FADDI-EC001, CAMHB broth microdilution
[17] = E. cloacae FADDI-EC003, CAMHB broth microdilution
[18] = E. cloacae FADDI-EC006, CAMHB broth microdilution
[19] = K. pneumoniae FADDI-KP022, CAMHB broth microdilution
[20] = K. pneumoniae FADDI-KP032, CAMHB broth microdilution
[21] = K. pneumoniae Kp BM1, CAMHB broth microdilution
[22] = P. aeruginosa ATCC 27853, CAMHB broth microdilution
[23] = P. aeruginosa FADDI-PA01, CAMHB broth microdilution
[24] = P. aeruginosa FADDI-PA022, CAMHB broth microdilution
[25] = P. aeruginosa FADDI-PA038, CAMHB broth microdilution
[26] = A. baumannii FADDI-AB030, CAMHB broth microdilution

Molecule	Minimum inhibitory concentration [1, 14]	Minimum inhibitory concentration [2, 15]	Minimum inhibitory concentration [3, 16]	Minimum inhibitory concentration [4, 17]	Minimum inhibitory concentration [5, 18]	Minimum inhibitory concentration [6, 19]	Minimum inhibitory concentration [7, 20]	Minimum inhibitory concentration [8, 21]	Minimum inhibitory concentration [9, 22]	Minimum inhibitory concentration [10, 23]	Minimum inhibitory concentration [11, 24]	Minimum inhibitory concentration [12, 25]	Minimum inhibitory concentration [13, 26]	Max Overall Kidney Histological Score (mouse kidney)	Max Kidney Histological Score (mouse kidney)	Minimum inhibitory concentration ([1]; ATCC 17978)	Minimum inhibitory concentration ([2]; FADDI-AB034)	Minimum inhibitory concentration ([3]; FADDI-EC001)	Minimum inhibitory concentration ([4]; FADDI-EC003)	Minimum inhibitory concentration ([5]; FADDI-EC006)	other results
CC[C@@H]1NC(=O)[C@@H](CC(C)C)NC(=O)[C@H](CCN)NC(=O)[C@@H](NC(=O)[C@H](CN)NC(=O)[C@@H](NC(=O)[C@H](CCN)NC(=O)c2ccc(C(F)(F)F)cn2)[C@@H](C)O)CCNC(=O)[C@H]([C@@H](C)O)NC(=O)[C@H](CCN)NC(=O)[C@H](CCN)NC1=O [Compound 38] (X14-[Dab]T[Dap][Dab][Dab][dL][Abu][Dab][Dab]T; lactam 4-C)	1 µg/mL (≈ 0.862 µM)	0.25 µg/mL (≈ 0.215 µM)	<0.125 µg/mL	0.25 µg/mL (≈ 0.215 µM)	0.25 µg/mL (≈ 0.215 µM)	0.25 µg/mL (≈ 0.215 µM)	<0.125 µg/mL	<0.125 µg/mL	0.25 µg/mL (≈ 0.215 µM)	0.25 µg/mL (≈ 0.215 µM)	0.25 µg/mL (≈ 0.215 µM)	1 µg/mL (≈ 0.862 µM)	1 µg/mL (≈ 0.862 µM)	0.0	0 (SQS 0=no significant change (overall score, <1))						
Colistin [reference compound]	0.5 µg/mL	0.5 µg/mL	0.25 µg/mL	<0.125 µg/mL	<0.125 µg/mL	1 µg/mL	1 µg/mL	<0.125 µg/mL	1 µg/mL	0.5 µg/mL	1 µg/mL	1 µg/mL	0.25 µg/mL	60.0	+5 (SQS +5=severe damage (overall score, ≥60))						nephrotoxicity in the mouse model (in words) (mouse kidney; 12 mg/kg every 2 h, 6 doses, subcutaneous): severe nephrotoxicity
CC[C@@H]1NC(=O)[C@@H](CC(C)C)NC(=O)[C@H](CCN)NC(=O)[C@@H](NC(=O)[C@H](CN)NC(=O)[C@@H](NC(=O)[C@H](CCN)NC(=O)c2nc3ccccc3[nH]2)[C@@H](C)O)CCNC(=O)[C@H]([C@@H](C)O)NC(=O)[C@H](CCN)NC(=O)[C@H](CCN)NC1=O [Compound 47] (X42-[Dab]T[Dap][Dab][Dab][dL][Abu][Dab][Dab]T; lactam 4-C)																1 µg/mL (≈ 0.884 µM)	1 µg/mL (≈ 0.884 µM)	<0.125 µg/mL	<0.125 µg/mL	0.5 µg/mL (≈ 0.442 µM)	Minimum inhibitory concentration ([6]; FADDI-KP022): <0.125 µg/mL; Minimum inhibitory concentration ([7]; FADDI-KP032): 0.25 µg/mL (≈ 0.221 µM); Minimum inhibitory concentration ([8]; Kp BM1): 0.25 µg/mL (≈ 0.221 µM); Minimum inhibitory concentration ([9]; ATCC 27853): 0.5 µg/mL (≈ 0.442 µM); Minimum inhibitory concentration ([10]; FADDI-): <0.125 µg/mL; Minimum inhibitory concentration ([11]; FADDI-PA022): 0.25 µg/mL (≈ 0.221 µM); Minimum inhibitory concentration ([12]; FADDI-PA038): 0.5 µg/mL (≈ 0.442 µM); Minimum inhibitory concentration ([13]; FADDI-AB030): 0.25 µg/mL (≈ 0.221 µM)
CC[C@@H]1NC(=O)[C@@H](CC(C)C)NC(=O)[C@H](CCN)NC(=O)[C@@H](NC(=O)[C@H](CN)NC(=O)[C@@H](NC(=O)[C@H](CCN)NC(=O)c2ncc(C(F)(F)F)cc2Cl)[C@@H](C)O)CCNC(=O)[C@H]([C@@H](C)O)NC(=O)[C@H](CCN)NC(=O)[C@H](CCN)NC1=O [Compound 35] (X19-[Dab]T[Dap][Dab][Dab][dL][Abu][Dab][Dab]T; lactam 4-C)																0.25 µg/mL (≈ 0.209 µM)	0.25 µg/mL (≈ 0.209 µM)	<0.125 µg/mL	<0.125 µg/mL	<0.125 µg/mL	Minimum inhibitory concentration ([6]; FADDI-KP022): <0.125 µg/mL; Minimum inhibitory concentration ([7]; FADDI-KP032): <0.125 µg/mL; Minimum inhibitory concentration ([8]; Kp BM1): <0.125 µg/mL; Minimum inhibitory concentration ([9]; ATCC 27853): 0.25 µg/mL (≈ 0.209 µM); Minimum inhibitory concentration ([10]; FADDI-): 0.25 µg/mL (≈ 0.209 µM); Minimum inhibitory concentration ([11]; FADDI-PA022): 0.5 µg/mL (≈ 0.419 µM); Minimum inhibitory concentration ([12]; FADDI-PA038): 0.5 µg/mL (≈ 0.419 µM); Minimum inhibitory concentration ([13]; FADDI-AB030): <0.125 µg/mL
